Results reported in US5104800A, “One-step cephalosporin C amidase enzyme” (Merck & Co., Inc., priority 1989, dated 1992).

Assays:
[1] = test system: cephalosporin C amidase from Bacillus megaterium (alpha(2) beta(2) oligomer, 722 amino acid primary translation product); assay: Inhibitors of purified cephalosporin C amidase; format: biochemical; conditions: for inhibition of the enzyme (in words): concentration not given; for inhibition at 10 mM (potent inhibitors): inhibitor at 10 mM
From the text: (§1) The amino acid sequence of the cephalosporin C amidase enzyme of the present invention, recited further above, was deduced by DNA sequence analysis of the gene coding for the enzyme, and the accuracy of the results have been verified by sequencing three independent isolates from three different strains of Bacillus megaterium. However, since 100% accuracy cannot be totally assured, it has been considered desirable to also identify the cephalosporin C amidase enzyme of the present invention in terms of a number of physical and chemical attributes which it uniquely has. Purification of the enzyme for which such data has been derived is explained in more detail further below. Those data are set out in the following table:
(§2) Assay of activity: incubate 180 μl enzyme with 20 μl 20 mg/ml cephalosporin C; after 3 hours at 37° determine 7-ACA by HPLC assay
(§3) Cultures of B. megaterium were grown as described. The cells were removed from the broth by centrifugation. The broth was brought to 55% saturation with respect to ammonium sulfate and the precipitate removed by centrifugation. The supernatant was then brought to 75% saturated with respect to ammonium sulfate and the cephalosporin C amidase containing precipitate pelleted by centrifugation. This pellet was resuspended in 1/10 of the original culture volume of 15% (w/v) ammonium sulfate, 50 mM sodium phosphate, 5% (w/v) glycerol pH 7.5.
The 10× concentrated enzyme was brought from 15% to 18% w/v ammonium sulfate by addition of saturated ammonium sulfate and filtered through a 0.4 micron filter. Four mls of this was injected onto a Synchrome Synchropak propyl column (25 cm×[…]) which was previously equilibrated with 18% (w/v) ammonium sulfate, 50 mM potassium phosphate pH 7.0. The flow rate was 1 ml/min. For ten minutes after injection the mobile phase composition remained unchanged. From 10 to 40 minutes the mobile phase was changed in a linear gradient to 0% ammonium sulfate, 50 mM sodium phosphate pH 7. From 40-50 minutes the mobile phase composition remained unchanged. Two fractions/min. were collected and assayed for cephalosporin C amidase activity. The activity eluted from 22 to 25 minutes.
The five fractions with the most activity were pooled and concentrated by ultrafiltration in a Centricon 30 (Amicon) to about 50 μl. This concentrated enzyme was injected onto a Zorbox GF 250 (DuPont) column ([…]). The column had been equilibrated and was run in 10% (w/v) ammonium sulfate, 50 mM potassium phosphate pH 7.0 at 1 ml/min. Five fractions/min. were collected. All of the cephalosporin C amidase activity was recovered in two fractions at approximately 9 minutes after injection.
1. The substrate stock solution was prepared by dissolving 20 mg of cephalosporin C in 1 ml of water.
2. Cephalosporin C stock solution (20 μl) was added to the recovered enzyme (180 μl) and the mixture was incubated at 37° C. for 3 hours. Formation of 7-ACA was monitored by HPLC.

[2] = test system: cephalosporin C amidase from Bacillus megaterium (alpha(2) beta(2) oligomer, 722 amino acid primary translation product); assay: Kinetic characterisation of purified cephalosporin C amidase (Km, turnover); format: biochemical
From the text: as §1, §2
as §3, with “This pellet was resuspended in 1/10 of the original culture volume of 15% (w/v) ammonium sulfate, 50 mM sodium phosphate, 5% (w/v) glycerol pH 7.5.” left out
2. […] Formation of 7-ACA was monitored by HPLC.

Structure (SMILES) | inhibition at 10 mM (potent inhibitors) [1] [%] | further results
CC1(C)S[C@@H]2[C@H](NC(=O)Cc3ccccc3)C(=O)N2[C@H]1C(=O)O [PenG, penicillin G, reference compound] |  | inhibition of the enzyme (in words) [1]: NOT inhibited
NC(=O)CC[C@H](N)C(=O)O [Glutamine] | > 90 | 
NCC(=O)O [Glycine] | > 90 | 
CC1(C)S[C@@H]2[C@H](N)C(=O)N2[C@H]1C(=O)O [6-APA] |  | inhibition of the enzyme (in words) [1]: NOT inhibited
O=C(O)CCCC(=O)Nc1ccc(C(=O)O)cc1 [glutaryl-4-aminobenzoate, reference compound] |  | turnover number, fold higher than with cephalosporin C ([2]; substrate glutaryl-4-aminobenzoate (GAB) compared with cephalosporin C): 20 fold
C[C@@H](N)C(=O)O [D-alanine] | > 90 | 
CC(=O)OCC1=C(C(=O)O)N2C(=O)[C@@H](NC(=O)CCC[C@@H](N)C(=O)O)[C@H]2SC1 [cephalosporin C] |  | Km ([2]; substrate cephalosporin C): 1.3 mM
C[C@H](N)C(=O)O [L-alanine] | > 90 | 
